Results on 30 compounds are retold here after patent US8278452B2, “Heterocyclic compounds and compositions as c-kit and PDGFR kinase inhibitors” (IRM LLC, priority 2008, dated 2012).

As a reminder, the IC50 is the concentration at which inhibition is half-maximal.

This assay deals with Mo7e cells which endogenously express c-kit. Kind of assay: Mo7e assay: inhibition of SCF dependent proliferation (MTT). As to conditions: Table 1; SCF stimulated Mo7e cells, 48 hours, MTT. The assay is classed as cell-based. How it is done: The compounds described herein are tested for inhibition of SCF dependent proliferation using Mo7e cells which endogenously express c-kit in a 96 well format. Two-fold serially diluted test compounds (Cmax=10 μM) are evaluated for their antiproliferative activity of Mo7e cells stimulated with human recombinant SCF. After 48 hours of incubation at 37° C., cell viability is measured by using a MTT colorimetric assay from Promega. IC50 values for compounds of the invention are quoted in table 1, supra.
Compound `Cc1cc2c(cn1)cc(-c1cc(Nc3noc(-c4ccc(F)cc4F)n3)ccc1C)c(=O)n2C` [Compound A61, 3-(5-{[5-(2,4-difluorophenyl)-1,2,4-oxadiazol-3-yl]amino}-2-methylphenyl)-1,7-dimethyl-1,2-dihydro-1,6-naphthyridin-2-one] had an IC50 of 97 nM.

Consider `Cc1cc2c(cn1)cc(-c1cc(Nc3noc(-c4ccc(F)c(F)c4)n3)ccc1C)c(=O)n2C` [Compound A62, 3-(5-{[5-(3,4-difluorophenyl)-1,2,4-oxadiazol-3-yl]amino}-2-methylphenyl)-1,7-dimethyl-1,2-dihydro-1,6-naphthyridin-2-one], for which half-maximal inhibition (IC50) was put at 126 nM.

As to `Cc1cc2c(cn1)cc(-c1cc(Nc3noc(-c4ccc(C#N)cc4F)n3)ccc1C)c(=O)n2C` [Compound A63, 4-(3-{[3-(1,7-dimethyl-2-oxo-1,2-dihydro-1,6-naphthyridin-3-yl)-4-methylphenyl]amino}-1,2,4-oxadiazol-5-yl)-3-fluorobenzonitrile], the IC50 amounted to 123 nM.

Take `Cc1cc2c(cn1)cc(-c1cc(Nc3noc(C(O)C(C)C)n3)ccc1C)c(=O)n2C` (stereo not drawn) [Compound A64, 3-(5-(5-(1-hydroxy-2-methylpropyl)-1,2,4-oxadiazol-3-ylamino)-2-methylphenyl)-1,7-dimethyl-1,6-naphthyridin-2(1H)-one]: inhibition was half-maximal at 118 nM (IC50). This IC50 and that of the compound before are within 1.5-fold of each other.

With `Cc1cc2c(cn1)cc(-c1cc(Nc3noc(C4(C)COC4)n3)ccc1C)c(=O)n2C` [Compound A65, 1,7-dimethyl-3-(2-methyl-5-{[5-(3-methyloxetan-3-yl)-1,2,4-oxadiazol-3-yl]amino}phenyl)-1,2-dihydro-1,6-naphthyridin-2-one], the IC50 stood at 413 nM. Against the preceding compound, the IC50 is about 3.5-fold higher.

Take `Cc1cc2c(cn1)cc(-c1cc(Nc3noc(C4CCO4)n3)ccc1C)c(=O)n2C` (stereo not drawn) [Compound A66, 1,7-dimethyl-3-(2-methyl-5-{[5-(oxetan-2-yl)-1,2,4-oxadiazol-3-yl]amino}phenyl)-1,2-dihydro-1,6-naphthyridin-2-one]: the IC50 came to 143 nM. Compared with the last compound, the IC50 is about 2.9-fold lower.

Compound `Cc1cc2c(cn1)cc(-c1cc(Nc3noc(C(C)CO)n3)ccc1C)c(=O)n2C` (stereo not drawn) [Compound A67, 3-(5-(5-(1-hydroxypropan-2-yl)-1,2,4-oxadiazol-3-ylamino)-2-methylphenyl)-1,7-dimethyl-1,6-naphthyridin-2(1H)-one] had an IC50 of 299 nM.

With `Cc1cc2c(cn1)cc(-c1cc(Nc3noc(CC(C)C)n3)ccc1C)c(=O)n2C` [Compound A68, 3-(5-(5-isobutyl-1,2,4-oxadiazol-3-ylamino)-2-methylphenyl)-1,7-dimethyl-1,6-naphthyridin-2(1H)-one], the IC50 is 128 nM.

`Cc1cc2c(cn1)cc(-c1cc(Nc3noc(C4(CO)CC4)n3)ccc1C)c(=O)n2C` [Compound A69, 3-(5-(5-(1-(hydroxymethyl)cyclopropyl)-1,2,4-oxadiazol-3-ylamino)-2-methylphenyl)-1,7-dimethyl-1,6-naphthyridin-2(1H)-one] had an IC50 of 148 nM. This IC50 and that of the compound before are within 1.5-fold of each other.

With `Cc1cc2c(cn1)cc(-c1cc(Nc3noc(-c4cnccn4)n3)ccc1C)c(=O)n2C` [Compound A70, 1,7-dimethyl-3-(2-methyl-5-{[5-(pyrazin-2-yl)-1,2,4-oxadiazol-3-yl]amino}phenyl)-1,2-dihydro-1,6-naphthyridin-2-one], the IC50 worked out at 211 nM.

Turning to `Cc1cnc(-c2nc(Nc3ccc(C)c(-c4cc5cnc(C)cc5n(C)c4=O)c3)no2)cn1` [Compound A71, 1,7-dimethyl-3-(2-methyl-5-{[5-(5-methylpyrazin-2-yl)-1,2,4-oxadiazol-3-yl]amino}phenyl)-1,2-dihydro-1,6-naphthyridin-2-one], the IC50 came to 424 nM.

In turn, `Cc1cc2c(cn1)cc(-c1cc(Nc3noc(C4CC(=O)C4)n3)ccc1C)c(=O)n2C` [Compound A72, 1,7-dimethyl-3-(2-methyl-5-{[5-(3-oxocyclobutyl)-1,2,4-oxadiazol-3-yl]amino}phenyl)-1,2-dihydro-1,6-naphthyridin-2-one] came in with a half-inhibitory concentration (IC50) of 204 nM.

As for `Cc1cc2c(cn1)cc(-c1cc(Nc3noc(C4CCC(O)C4)n3)ccc1C)c(=O)n2C` (stereo not drawn) [Compound A73, 3-(5-(5-(3-hydroxycyclopentyl)-1,2,4-oxadiazol-3-ylamino)-2-methylphenyl)-1,7-dimethyl-1,6-naphthyridin-2(1H)-one], half-maximal inhibition (IC50) was put at 178 nM.

In the case of `CCOCc1nc(Nc2ccc(C)c(-c3cc4cnc(C)cc4n(C)c3=O)c2)no1` [Compound A74, 3-(5-{[5-(ethoxymethyl)-1,2,4-oxadiazol-3-yl]amino}-2-methylphenyl)-1,7-dimethyl-1,2-dihydro-1,6-naphthyridin-2-one], the IC50 was 296 nM.

In turn, `Cc1cc2c(cn1)cc(-c1cc(Nc3noc([C@H]4CCCO4)n3)ccc1C)c(=O)n2C` [Compound A75, 1,7-dimethyl-3-[2-methyl-5-({5-[(2R)-oxolan-2-yl]-1,2,4-oxadiazol-3-yl}amino)phenyl]-1,2-dihydro-1,6-naphthyridin-2-one] returned an IC50 of 40 nM. Compared with the last compound, the IC50 is about 7.4-fold lower.

Consider `CO[C@@H](C)c1nc(Nc2ccc(C)c(-c3cc4cnc(C)cc4n(C)c3=O)c2)no1` [Compound A76, (S)-3-(5-(5-(1-methoxyethyl)-1,2,4-oxadiazol-3-ylamino)-2-methylphenyl)-1,7-dimethyl-1,6-naphthyridin-2(1H)-one], for which the IC50 was found to be 142 nM.

`Cc1cc2c(cn1)cc(-c1cc(Nc3noc([C@@H]4CCCO4)n3)ccc1C)c(=O)n2C` [Compound A77, (S)-1,7-dimethyl-3-(2-methyl-5-(5-(tetrahydrofuran-2-yl)-1,2,4-oxadiazol-3-ylamino)phenyl)-1,6-naphthyridin-2(1H)-one] displayed a half-maximal inhibitory concentration (IC50) of 27 nM.

For `Cc1cc2c(cn1)cc(-c1cc(Nc3noc(C4CCOC4)n3)ccc1C)c(=O)n2C` (stereo not drawn) [Compound A78, 1,7-dimethyl-3-(2-methyl-5-{[5-(oxolan-3-yl)-1,2,4-oxadiazol-3-yl]amino}phenyl)-1,2-dihydro-1,6-naphthyridin-2-one], half-maximal inhibition (IC50) required 120 nM.

The compound `Cc1cc2c(cn1)cc(-c1cc(Nc3noc(-c4ncccc4C)n3)ccc1C)c(=O)n2C` [Compound A79, 1,7-dimethyl-3-(2-methyl-5-{[5-(3-methylpyridin-2-yl)-1,2,4-oxadiazol-3-yl]amino}phenyl)-1,2-dihydro-1,6-naphthyridin-2-one] gave an IC50 of 94 nM.

For the compound `COc1cc(C)ccc1-c1nc(Nc2ccc(C)c(-c3cc4cnc(C)cc4n(C)c3=O)c2)no1` [Compound A80, 3-(5-{[5-(2-methoxy-4-methylphenyl)-1,2,4-oxadiazol-3-yl]amino}-2-methylphenyl)-1,7-dimethyl-1,2-dihydro-1,6-naphthyridin-2-one], 338 nM corresponded to half-maximal inhibition (IC50).

`Cc1cc2c(cn1)cc(-c1cc(Nc3noc(-c4ccc(F)cc4Cl)n3)ccc1C)c(=O)n2C` [Compound A81, 3-(5-{[5-(2-chloro-4-fluorophenyl)-1,2,4-oxadiazol-3-yl]amino}-2-methylphenyl)-1,7-dimethyl-1,2-dihydro-1,6-naphthyridin-2-one]: the IC50 stood at 237 nM.

Consider `Cc1cc2c(cn1)cc(-c1cc(Nc3noc(-c4ccc(Cl)cc4Cl)n3)ccc1C)c(=O)n2C` [Compound A82, 3-(5-{[5-(2,4-dichlorophenyl)-1,2,4-oxadiazol-3-yl]amino}-2-methylphenyl)-1,7-dimethyl-1,2-dihydro-1,6-naphthyridin-2-one], for which the IC50 amounted to 262 nM.

Take `Cc1cc2c(cn1)cc(-c1cc(Nc3noc(C4CC(O)C4)n3)ccc1C)c(=O)n2C` (stereo not drawn) [Compound A83, 3-(5-{[5-(3-hydroxycyclobutyl)-1,2,4-oxadiazol-3-yl]amino}-2-methylphenyl)-1,7-dimethyl-1,2-dihydro-1,6-naphthyridin-2-one]: the IC50 came to 251 nM.

Turning to `Cc1cc2c(cn1)cc(-c1cc(Nc3noc(C4CC(C)(O)C4)n3)ccc1C)c(=O)n2C` (stereo not drawn) [Compound A84, 3-(5-{[5-(3-hydroxy-3-methylcyclobutyl)-1,2,4-oxadiazol-3-yl]amino}-2-methylphenyl)-1,7-dimethyl-1,2-dihydro-1,6-naphthyridin-2-one], it took 176 nM to reach half-maximal inhibition (IC50).

Take `Cc1cc2c(cn1)cc(-c1cc(Nc3noc(C4CCCCO4)n3)ccc1C)c(=O)n2C` (stereo not drawn) [Compound A85, 1,7-dimethyl-3-(2-methyl-5-{[5-(oxan-2-yl)-1,2,4-oxadiazol-3-yl]amino}phenyl)-1,2-dihydro-1,6-naphthyridin-2-one]: the IC50 stood at 79 nM.

`Cc1ccc(Nc2noc(-c3ccccc3)n2)cc1-c1cc2c[n+]([O-])c(C)cc2n(C)c1=O` [Compound A86, 1,7-dimethyl-3-{2-methyl-5-[(5-phenyl-1,2,4-oxadiazol-3-yl)amino]phenyl}-6-oxido-2-oxo-1,2-dihydro-1,6-naphthyridin-6-ium] returned an IC50 of 216 nM. This IC50 is about 2.7-fold higher than that of the compound before.

For `COc1ccc(-c2nc(Nc3ccc(C)c(-c4cc5cnc(C)cc5n(C)c4=O)c3)no2)cn1` [Compound A87, 3-(5-{[5-(6-methoxypyridin-3-yl)-1,2,4-oxadiazol-3-yl]amino}-2-methylphenyl)-1,7-dimethyl-1,2-dihydro-1,6-naphthyridin-2-one], the IC50 was 95 nM.

As for `Cc1cc2c(cn1)cc(-c1cc(Nc3noc(-c4ccc(C(C)(F)F)nc4)n3)ccc1C)c(=O)n2C` [Compound A88, 3-[5-({5-[6-(1,1-difluoroethyl)pyridin-3-yl]-1,2,4-oxadiazol-3-yl}amino)-2-methylphenyl]-1,7-dimethyl-1,2-dihydro-1,6-naphthyridin-2-one], the IC50 amounted to 259 nM.

In turn, `Cc1cc2c(cn1)cc(-c1cc(Nc3noc(-c4ccc(C(C)(F)F)cc4)n3)ccc1C)c(=O)n2C` [Compound A89, 3-[5-({5-[4-(1,1-difluoroethyl)phenyl]-1,2,4-oxadiazol-3-yl}amino)-2-methylphenyl]-1,7-dimethyl-1,2-dihydro-1,6-naphthyridin-2-one] yielded an IC50 of 217 nM.

`Cc1cc2c(cn1)cc(-c1cc(Nc3noc(-c4ccc(CN)cc4)n3)ccc1C)c(=O)n2C` [Compound A90, 3-[5-({5-[4-(aminomethyl)phenyl]-1,2,4-oxadiazol-3-yl}amino)-2-methylphenyl]-1,7-dimethyl-1,2-dihydro-1,6-naphthyridin-2-one] registered an IC50 of 434 nM.
